System: rat striatal slices preloaded with [3H]DA
Assay: [3H]DA release assay: drug-evoked [3H]overflow / fractional release from rat striatal slices preloaded with [3H]DA
Type: cell-based
Method: Rat striata were rapidly dissected on ice and were sliced using a McIlwain tissue chopper. […] Slices were rinsed with 15 mL fresh buffer and then incubated in fresh buffer containing 0.1 μM [^3 H]DA (6-8 slices/3 mL) for an additional 30 min. Subsequently, slices were rinsed with 15 mL fresh buffer and transferred to a glass superfusion chamber. […] After 60 min of superfusion when basal outflow was stabilized, two 5-min samples (5 mL) were collected to determine basal [^3 H]outflow.
The concentration-response for each drug was determined using a repeated-measures design.
The pH and volume of the solubilized tissue samples were adjusted to those of the superfusate samples.
Fractional release for each superfusate sample was calculated by dividing the tritium collected in each sample by the total tritium present in the tissue at the time of sample collection. Fractional release was expressed as a percentage of total tritium in the tissue at the time of sample collection. Basal outflow was calculated from the average of the tritium collected in the two 5-min samples just before the addition of drug.
Inhibition of synaptosomal and vesicular [^3 H]DA uptake were analyzed by repeated-measures, one-way ANOVA, and by an iterative nonlinear least-squares curve-fitting program (GraphPAD-PRIZM; GraphPAD, San Diego, Calif.) to obtain IC50 values. Dunnett's post hoc test was used to compare treatment means to a single control mean. Also, Duncan's New Multiple Range Test or Fisher's LSD post hoc analysis were used to compare pairs of treatment means. Duncan's New Multiple Range Test was used when significant one-way ANOVA's were obtained or when significant main effects were obtained in the two-way ANOVA's. Fisher's LSD post hoc analysis is a more conservative test, which takes into account error which cumulates during multiple comparisons of pairs of means. Fisher's LSD analysis was used when the interaction term was significant in the two-way ANOVAs, specifically in the post hoc analysis of drug×time interactions. Statistical significance was reached when P<0.05 (two-tailed, unless otherwise indicated).

CN1[C@@H](CC(=O)c2ccccc2)CCC[C@H]1C[C@H](O)c1ccccc1 [Lobeline, 2-[G-(β-hydroxyphenethyl)-1-methyl-2-piperidyl]-acetophenone]
effect on fractional release (3 μM, 15 and 20 min after addition): significant increase in fractional release | effect on fractional release (low concentrations) (0.01-1 μM, entire superfusion period): did not significantly increase fractional release | effect on fractional release (high concentrations) (10-100 μM, from 10 min after addition to end): significantly increased | calcium-dependency of [3H]overflow (calcium-free buffer vs control): not altered | effect on [3H]overflow compared to nicotine (higher concentrations (10-100 μM)): 8-34 fold | time of peak effect after start of exposure (lobeline): 10 to 20 min | total [3H]overflow (lobeline 0.1 μM, calcium-free buffer with 0.5 mM EGTA): 0 ± 0 | total [3H]overflow (lobeline 0.1 μM, control buffer): 0.6 ± 0.4 | total [3H]overflow (lobeline 1 μM, calcium-free buffer with 0.5 mM EGTA): 2.9 ± 0.2 | total [3H]overflow (lobeline 1 μM, control buffer): 2.0 ± 0.6 | total [3H]overflow (lobeline 10 μM, calcium-free buffer with 0.5 mM EGTA): 45.0 ± 4.2 | total [3H]overflow (lobeline 10 μM, control buffer): 31.9 ± 2.2 | peak fractional release (lobeline 30 μM): approximately 15 % of total tritium in the slice | peak fractional release (lobeline 100 μM): ~30 % of total tritium in the slice | total [3H]overflow (lobeline 100 μM, calcium-free buffer with 0.5 mM EGTA): 185.0 ± 12.0 | total [3H]overflow (lobeline 100 μM, control buffer): 198.0 ± 20 | fractional release over the remainder of the superfusion period (lobeline 30 and 100 μM): 10-20 % of total tritium in the slice | minimal effective concentration (read-out: lowest concentration which evoked a significant increase in [3H]overflow): 1 µM

From US6087376A (priority 1998, dated 2000)
